Values of other authors as cited in paper PMC9171782 (Proceedings of the National Academy of Sciences of the …, 2022).

Columns and labels:
[1] = test system: GLP-1R with mutation of W33; conditions: mutation of W33 conserved in human and primate GLP-1Rs

| bioavailability (noninjectable formulation in the clinic) | gastrointestinal complaints (such as nausea and vomiting) | Molecule | agonist activity at W33-mutated GLP-1R [1] | insulinotropic activity upon oral intake (cynomolgus monkeys) |
| --- | --- | --- | --- | --- |
|  |  | Cc1cc(-n2nc3c(c2-n2ccn(-c4ccc5c(cnn5C)c4F)c2=O)[C@H](C)N(C(=O)c2cc4cc(N5CCOC(C)(C)C5)ccc4n2[C@@]2(c4noc(=O)[nH]4)C[C@@H]2C)CC3)cc(C)c1F [CHU-128] | failed to elicit agonist activity |  |
|  |  | Cc1cc(-n2nc3c(c2-n2ccn(-c4ccc5c(cnn5C)c4F)c2=O)[C@H](C)N(C(=O)c2cc4cc([C@H]5CCOC(C)(C)C5)ccc4n2[C@@]2(c4noc(=O)[nH]4)C[C@@H]2C)CC3)cc(C)c1F [LY3502970] | failed to elicit agonist activity | demonstrated |
|  |  | N#Cc1ccc(COc2cccc(C3CCN(Cc4nc5ccc(C(=O)O)cc5n4C[C@@H]4CCO4)CC3)n2)c(F)c1 [PF-06882961] | failed to elicit agonist activity | demonstrated |
|  |  | N#Cc1ccc(COc2cccc(C3=CCN(Cc4nc5ccc(C(=O)O)nc5n4C[C@@H]4CCO4)CC3)n2)c(F)c1 [RGT1383] | failed to elicit agonist activity |  |
| low bioavailability | frequent gastrointestinal complaints | Semaglutide |  |  |
